Measured values published in patent US7507792B2, “MDA-7 proteins and methods of use thereof” (The Trustees of Columbia University In The City of New York, priority 1993, dated 2009).

System: wild-type p53 protein
Assay: Immunoprecipitation of p53 in H0-1 cells
Assay type: cell-based, human
Details: IFN-β 2000 units/ml, MEZ 10 ng/ml
Protocol: Immunoprecipitation analyses were performed as described previously (Duigou et al., 1991; Su et al., 1993; Jiang et al., 1994b). […] Cultures were starved of methionine for 1 h at 37° C. in methionine-free medium, cells were concentrated by pelleting and labeled for 1 h (p53) or 4 h (p21 and Actin) at 37° in 1 ml of the same medium with 100 μCi of [^35S] (NEN; Express ^35S). After labeling, the cells were washed twice with ice-cold phosphate-buffered saline and lysed for 1 h on ice by the addition of RIPC (20 mM Tris-base, pH 7.5, 500 mM NaCl, 0.05% Nonidet P-40, 100 μg/ml phenylmethylsulfonyl fluoride and 0.02% sodium azide). The lysate was clarified by centrifugation in an Eppendorf microfuge at 10,000×g for 10 min at 4° C. H0-1 samples containing 4×10^6 counts were incubated with 2 μg of p53 monoclonal antibody (Ab1; PAb421) (Oncogene Sciences), WAF1/CIP1 (C-19) (Santa Cruz Biotechnology) (or MDA-6 peptide-derived) rabbit polyclonal IgG or actin monoclonal antibody (Oncogene Sciences) with rocking at 4° C. for 24 h. Labeled cell lysates were also prepared from F0-1, L0-1, SH-1, WM239, FM516-SV, SW480, MeWo, human skin fibroblasts and Saos-2 cells. Samples containing 4×10^6 counts were incubated with 2 μg of the p53 monoclonal antibody Ab1 (PAb421) or Ab3 (PAb240) (Oncogene Sciences). […]

For C=C(C)[C@@]12O[C@@]3(c4ccccc4)O[C@@H]1[C@@H]1[C@@H]4O[C@]4(CO)[C@@H](O)[C@]4(O)C(=O)C(C)=C[C@H]4[C@@]1(O3)[C@H](C)[C@H]2OC(=O)/C=C/C=C/c1ccccc1 [MEZ, mezerein], the “wild-type p53 protein level” value (24 h) was “no significant change” and the “wild-type p53 protein level” value (over 48, 72, 96 h) was “decreases”.
